Source: patent US12295973B2 (Fred Hutchinson Cancer Center, priority 2017, dated 2025)
Where a SMILES comes first, the peptide text is derived from it. [ ]: non-standard residue; d: D form. The star is where a group is joined. dPhe(4-NHCONH2) = NC(=O)Nc1ccc(C[C@@H](N)C(=O)O)cc1; Dihydroorotyl(S) = O=C1C[C@@H](C(=O)*)NC(=O)N1; dPhe(4-Cl) = N[C@H](Cc1ccc(Cl)cc1)C(=O)O; Phe(4-NH2) = Nc1ccc(C[C@H](N)C(=O)O)cc1; d2Nal = N[C@H](Cc1ccc2ccccc2c1)C(=O)O; Lys(iPr) = CC(C)NCCCC[C@H](N)C(=O)O; d3Pal = N[C@H](Cc1cccnc1)C(=O)O

How the values were obtained:
Assay type in all cases: in vivo, mouse
LT-HSCs [1] = experiment: Gene expression in LT-HSCs purified after 300cGy irradiation
Protocol: To gain some insights in to the molecular changes mediated by LHRH-Ant treatment on HSCs LT-HSCs were purified after 300cGy irradiation and expression of key genes associated with quiescence, proliferation, DNA damage response and apoptosis of HSCs was assessed. […] Importantly, both Bcl-2 and Mcl-1 have been implicated in regulating HSC quiescence and survival respectively^45,46.
Real time PCR: Reverse transcription-PCR was performed with QuantiTect reverse transcription kit (QIAGEN). For real-time PCR, specific primer and probe sets were obtained from Applied Biosystems as follows: β-actin (Mm01205647_g1); HPRT (Mm00446968_m1); AR (Mm00442688_m1); FSHR (Mm00442819_m1); LHCGR (Mm00442931_m1). PCR was done on ABI 7500 (Applied Biosystems) or Step-One Plus (Applied Biosystems) with TaqMan Universal PCR Master Mix (Applied Biosystems). Relative amounts of mRNA were calculated by the Ct method.
Statistics: Bars and error bars represent the mean+SEM for the various groups. For most experiments, nonparametric testing was performed if normal distribution could not be assumed. All tests performed are two sided. Statistical analysis between two groups was performed with the nonparametric, unpaired Mann-Whitney U test. Tests performed are two sided, except for gene category analysis. Differential expression of gene categories was computed using Fisher's method and the input p-value for each individual gene from a category is computed from a one sided test. Survival data were analyzed with the Mantel-Cox log-rank test. Parametric t test was used for FIG. 6H right panel. The experiments were not randomized and the investigators were not blinded to the group allocation during the experiments or when assessing the outcomes. To ensure adequate power for statistical analysis at least five samples per group were tested. In general variation within groups and between experiments was low, however to take into account inter-experimental variation all experiments were performed at least twice. To account for intra-experimental variation, particularly for in vitro studies, several wells per conditions were assessed with primary sample material coming from at least two different mice. No samples or animals were excluded from the analysis except for mouse peripheral blood analysis where outliers were detected prior to the analysis with two-sided Grubbs' test for outliers (GraphPad). All statistics were calculated and display graphs generated using GraphPad 6.

[2] = test system: hematopoietic stem and progenitor cell (HSPC) compartment; experiment: Bone marrow analysis of the HSPC compartment after L-TBI (cellularity, flow cytometry)
Protocol: To investigate the specific regenerative effects mediated by LHRH-Ant treatment on the hematopoietic stem and progenitor cell (HSPC) compartment, BM were analyzed at several time points after L-TBI. […] To determine hematopoietic functional potential, colony-forming unit activity was next quantified to determine the effects of LHRH-Ant on the recovery of committed hematopoietic progenitor cells. […] Consistent with these functional findings, on day 14 after L-TBI, expansion of LSKs as well as their downstream progenitors in mice given LHRH-Ant were found (FIGS. 2F, 2G). […] However, given the changes in HSC phenotype after radiation, the standard competitive repopulation functional assay was adapted to evaluate the presence and relative quantity of functional HSCs after L-TBI. Specifically, all cells from the BM and spleen (to account for potential changes to circulating HSCs) were collected and transplanted from vehicle or LHRH-Ant treated mice at day 14 after L-TBI into irradiated hosts (along with a rescue dose of congenic WBM cells to ensure survival). This approach allowed detection of differences in the total number of residual HSCs which would be reflected by a functional difference in hematopoietic reconstitution.
Flow cytometry and cell cycle analysis: Monoclonal antibodies recognizing the following markers were used for flow cytometric analyses and cell sorting of murine cells (LSR II or FACSAria III, BD Biosciences): (from BD Pharmingen) c-kit (2B8), Sca-1 (D7), CD11b (M1/70), CD11c (HL3), CD19 (ID3), CD3ϵ (145-2C11), CD34 (RAM34), CD45 (30-F11), CD45.1 (A20), CD45.2 (104), CD48 (HM48-1), CD62L (MEL-14), CD135 (A2F10.1), Gr-1 (RB6-8C5), NK1.1 (PK136), TER-119 (TER-119); (from eBioscience) CD127 (A7R34), CD150 (mShad150); (from Invitrogen) B220 (RA3-6B2) and streptavidin (N/A). The mouse lineage antibody cocktail included anti-CD3, anti-CD4, anti-CD8α, anti-CD19, anti-CD11 b, anti-CD11c, anti-Gr-1, anti-NK1.1, and anti-TER119. The following antibodies were used for flow cytometry analyses of human samples, CD49f (eBioGoH3), CD45RA (L48), CD34 (581), CD38 (HIT2). CD90 (5E10), CD10 (H110a). The human lineage antibody cocktail included anti-CD3, anti-CD14, anti-CD16, anti-CD19, anti-CD20, anti-CD56. To detect human LHCGR a polyclonal anti-LHCGR (Alomone, cat #:ALR-010) was used. For intracellular Ki67/DAPI staining, BM cells were stained with surface markers, fixed, and permeabilized using the Fixation/Permeabilization kit (cat. 00552100 ebioscience) and permeabilization buffer (cat. 008333 ebioscience). Cells were then incubated with Ki67-Alexa 700 (B56) (from BD Biosciences) for 45 minutes at 4C. After centrifugation DAPI (5 μg/ml) was added to cells and allowed to incubate for at least 30 min at RT before analysis. […]

LT-HSCs [3] = experiment: Cell cycle status of HSCs (Ki-67/DAPI) after L-TBI; conditions: vs vehicle
Description: The control of HSC self-renewal, differentiation, and proliferation is a tightly regulated process crucial for maintaining the HSC pool^29-34. This is particularly relevant during hematopoietic injuries (such as high dose or repeated rounds of chemotherapy or irradiation) when dormant HSCs transiently start to proliferate to replenish blood cells as unbalanced HSC proliferation can lead to stem cell exhaustion and long-term myelosuppression^35-37. […] Although there is a clear need for HSC proliferation to ensure regenerative hematopoiesis, previous reports have also shown that induction of HSC quiescence after high-dose irradiation correlates with increased hematopoietic recovery and enhanced mouse survival^35,37,41.
Flow cytometry and cell cycle analysis: Monoclonal antibodies recognizing the following markers were used for flow cytometric analyses and cell sorting of murine cells (LSR II or FACSAria III, BD Biosciences): (from BD Pharmingen) c-kit (2B8), Sca-1 (D7), CD11b (M1/70), CD11c (HL3), CD19 (ID3), CD3ϵ (145-2C11), CD34 (RAM34), CD45 (30-F11), CD45.1 (A20), CD45.2 (104), CD48 (HM48-1), CD62L (MEL-14), CD135 (A2F10.1), Gr-1 (RB6-8C5), NK1.1 (PK136), TER-119 (TER-119); (from eBioscience) CD127 (A7R34), CD150 (mShad150); (from Invitrogen) B220 (RA3-6B2) and streptavidin (N/A). […]

Compound: CC(=O)N[C@H](Cc1ccc2ccccc2c1)C(=O)N[C@H](Cc1ccc(Cl)cc1)C(=O)N[C@H](Cc1cccnc1)C(=O)N[C@@H](CO)C(=O)N[C@@H](Cc1ccc(NC(=O)[C@@H]2CC(=O)NC(=O)N2)cc1)C(=O)N[C@H](Cc1ccc(NC(N)=O)cc1)C(=O)N[C@@H](CC(C)C)C(=O)N[C@@H](CCCCNC(C)C)C(=O)N1CCC[C@H]1C(=O)N[C@H](C)C(N)=O [LHRH-Ant, Degarelix] (Ac-[d2Nal][dPhe(4-Cl)][d3Pal]S[Phe(4-NH2)](Dihydroorotyl(S))[dPhe(4-NHCONH2)]L[Lys(iPr)]P[dA]-NH2)
- expression level of Cdknla (p21) (LT-HSCs [1]): significantly higher levels
- expression level of Hest (LT-HSCs [1]): significantly higher levels
- expression of anti-apoptotic gene Bcl2 (LT-HSCs [1]): significantly increased
- expression of anti-apoptotic gene Mcl1 (LT-HSCs [1]): significantly increased
- expression of genes related to apoptosis (LT-HSCs [1]; p=0.004): significant overexpression
- expression of genes related to quiescence (LT-HSCs [1]; p=0.02): significant overexpression
- total BM cellularity ([2]; day 7 after L-TBI, vs vehicle): no difference
- LSKs and their downstream progenitors ([2]; day 14 after L-TBI): expansion
- LT-HSCs number ([2]; day 14 after L-TBI): significantly more LT-HSCs
- BM cellularity ([2]; day 14 after radiation, vs vehicle): started to separate significantly from the vehicle group by day 14
- proliferative HSCs (LT-HSCs [3]): fewer proliferative HSCs
- proportion of Ki-67− quiescent LT-HSCs (LT-HSCs [3]): significantly higher proportion
